Assay results reported in ChEMBL document CHEMBL1130446, “The synthesis of CD - ring modified 1,25-dihydroxy vitamin D analogues: Six-membered D-ring analogues II” (Bioorg Med Chem Lett, 1997).

Assays:
HL-60 = experiment: Compound was tested in vitro for its biological evaluation against HL-60 cell line; type: functional, Homo sapiens
Keratinocyte = experiment: Compound was tested in vitro for its biological evaluation against keratinocytes cell line; type: functional
[1] = Ratio of biological evaluation of compound in keratinocytes and calcium sreum was determined. value expressed as relative toxicity.; type: cell-based
[2] = molecular target: T1, Vitamin D3 receptor (Sus scrofa domesticus) (UniProt Q7M3G7); experiment: Compound was tested for its relative affinity to pig intestinal mucosa Vitamin D3 receptor using [3H]- 1 alpha,25(OH)2 D3 radioligand compared to 1 alpha 25-(OH)2D3; type: tissue-based
T1 sequence (whole entry): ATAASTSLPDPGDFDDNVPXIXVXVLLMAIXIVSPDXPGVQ

Mus musculus = experiment: In vivo effect in vitamin D-replete normal NMRI mice by measuring calcium levels in serum; type: functional
MCF7 = experiment: Compound was tested in vitro for its biological evaluation against MCF-7 cell line; type: functional, Homo sapiens
MG-63 = experiment: Compound was tested in vitro for its biological evaluation against MG-63 cell line; type: functional, Homo sapiens
[3] = Ratio of biological evaluation of compound in keratinocytes and calcium serum was determined. value expressed as relative toxicity.; type: cell-based

| Structure (SMILES) | Activity (HL-60) | Activity (Keratinocyte) | Ratio [1] | Relative affinity [2] | Activity (Mus musculus) | Activity (MCF7) | Activity (MG-63) | Ratio [3] |
| --- | --- | --- | --- | --- | --- | --- | --- | --- |
| C=C1/C(=C\C=C2/CCC[C@]3(C)C([C@H](C)CC#CC(C)(C)O)=CC[C@@H]23)C[C@@H](O)C[C@@H]1O [ILX23-7553] | 1000 | 8000 | 1300 | 70 | 10 | 4250 | 1000 |  |
| C=C1C(=CC=CC2CCCC([C@@H](C)CC#CC(C)(C)O)C2(C)C)C[C@@H](O)C[C@@H]1O (stereo not given in full) | 10 | 7 | 28 | 0.7 | 0.25 | 4 | 20 |  |
| C=C1C(=CC=CC2CCCC([C@H](C)CC#CC(C)(C)O)C2(C)C)C[C@@H](O)C[C@@H]1O (stereo not given in full) | 85 | 200 |  | 60 | <0.1 | 100 |  | 2000 |
